Read-outs that look alike come from different tables or passages of the source.

Among the targets are ROCK1 (Homo sapiens, UniProt Q13464); FGFR3 (Homo sapiens, UniProt P22607); HCK (Homo sapiens, UniProt P08631).
What all share (assay): biochemical
What all share (design): DiscoveRx KINOMEscan active site-directed competition binding; percent of control kinase bound to immobilised ligand

The next assay addresses T1, NEK10 (Homo sapiens, UniProt Q6ZWH5).
T1 sequence (Q6ZWH5 1-1172): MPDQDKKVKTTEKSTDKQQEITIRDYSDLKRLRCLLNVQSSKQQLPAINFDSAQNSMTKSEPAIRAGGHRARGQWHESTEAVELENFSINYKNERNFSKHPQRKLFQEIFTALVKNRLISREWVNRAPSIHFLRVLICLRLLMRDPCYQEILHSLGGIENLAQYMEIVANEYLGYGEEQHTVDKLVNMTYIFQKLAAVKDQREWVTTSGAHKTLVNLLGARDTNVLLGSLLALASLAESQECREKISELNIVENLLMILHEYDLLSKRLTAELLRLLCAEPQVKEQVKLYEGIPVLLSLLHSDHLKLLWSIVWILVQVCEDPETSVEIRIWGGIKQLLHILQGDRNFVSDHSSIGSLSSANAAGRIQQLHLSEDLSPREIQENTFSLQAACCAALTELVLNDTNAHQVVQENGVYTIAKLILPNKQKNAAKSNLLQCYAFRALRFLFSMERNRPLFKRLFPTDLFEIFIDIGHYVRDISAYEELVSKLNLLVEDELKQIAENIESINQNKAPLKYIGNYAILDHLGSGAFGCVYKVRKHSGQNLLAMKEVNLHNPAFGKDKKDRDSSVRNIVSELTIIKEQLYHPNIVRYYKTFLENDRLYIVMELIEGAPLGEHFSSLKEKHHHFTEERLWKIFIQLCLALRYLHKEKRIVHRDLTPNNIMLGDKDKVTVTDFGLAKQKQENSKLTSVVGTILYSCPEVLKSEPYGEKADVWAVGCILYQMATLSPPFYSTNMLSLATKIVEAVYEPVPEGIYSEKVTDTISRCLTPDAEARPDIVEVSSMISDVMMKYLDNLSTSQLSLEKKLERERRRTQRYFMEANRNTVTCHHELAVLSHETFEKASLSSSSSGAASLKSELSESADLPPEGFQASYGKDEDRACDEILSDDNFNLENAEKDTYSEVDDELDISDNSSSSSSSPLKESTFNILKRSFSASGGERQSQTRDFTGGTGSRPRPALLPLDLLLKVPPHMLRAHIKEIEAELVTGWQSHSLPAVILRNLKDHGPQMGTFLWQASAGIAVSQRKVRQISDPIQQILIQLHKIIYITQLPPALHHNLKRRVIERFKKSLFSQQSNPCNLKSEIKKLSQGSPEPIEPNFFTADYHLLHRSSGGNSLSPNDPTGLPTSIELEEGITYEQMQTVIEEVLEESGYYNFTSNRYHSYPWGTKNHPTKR

The target in a further assay is T2, YANK1 (Homo sapiens, UniProt Q8WU08).
T2 construct: gene STK32A
T2 sequence (Q8WU08 whole entry): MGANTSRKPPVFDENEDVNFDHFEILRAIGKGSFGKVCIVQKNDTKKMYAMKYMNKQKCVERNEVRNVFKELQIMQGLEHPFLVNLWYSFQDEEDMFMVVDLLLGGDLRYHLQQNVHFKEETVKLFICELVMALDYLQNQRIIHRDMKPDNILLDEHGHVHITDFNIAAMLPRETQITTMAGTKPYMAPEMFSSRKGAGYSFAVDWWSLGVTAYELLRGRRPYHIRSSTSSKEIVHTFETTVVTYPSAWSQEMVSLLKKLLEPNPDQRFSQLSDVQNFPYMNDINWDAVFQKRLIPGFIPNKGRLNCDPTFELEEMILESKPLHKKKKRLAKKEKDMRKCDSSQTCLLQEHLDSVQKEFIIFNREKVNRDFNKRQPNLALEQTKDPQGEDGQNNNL

Another assay addresses T3, EPHA6 (Homo sapiens, UniProt Q9UF33).
T3 sequence (Q9UF33 1-1036): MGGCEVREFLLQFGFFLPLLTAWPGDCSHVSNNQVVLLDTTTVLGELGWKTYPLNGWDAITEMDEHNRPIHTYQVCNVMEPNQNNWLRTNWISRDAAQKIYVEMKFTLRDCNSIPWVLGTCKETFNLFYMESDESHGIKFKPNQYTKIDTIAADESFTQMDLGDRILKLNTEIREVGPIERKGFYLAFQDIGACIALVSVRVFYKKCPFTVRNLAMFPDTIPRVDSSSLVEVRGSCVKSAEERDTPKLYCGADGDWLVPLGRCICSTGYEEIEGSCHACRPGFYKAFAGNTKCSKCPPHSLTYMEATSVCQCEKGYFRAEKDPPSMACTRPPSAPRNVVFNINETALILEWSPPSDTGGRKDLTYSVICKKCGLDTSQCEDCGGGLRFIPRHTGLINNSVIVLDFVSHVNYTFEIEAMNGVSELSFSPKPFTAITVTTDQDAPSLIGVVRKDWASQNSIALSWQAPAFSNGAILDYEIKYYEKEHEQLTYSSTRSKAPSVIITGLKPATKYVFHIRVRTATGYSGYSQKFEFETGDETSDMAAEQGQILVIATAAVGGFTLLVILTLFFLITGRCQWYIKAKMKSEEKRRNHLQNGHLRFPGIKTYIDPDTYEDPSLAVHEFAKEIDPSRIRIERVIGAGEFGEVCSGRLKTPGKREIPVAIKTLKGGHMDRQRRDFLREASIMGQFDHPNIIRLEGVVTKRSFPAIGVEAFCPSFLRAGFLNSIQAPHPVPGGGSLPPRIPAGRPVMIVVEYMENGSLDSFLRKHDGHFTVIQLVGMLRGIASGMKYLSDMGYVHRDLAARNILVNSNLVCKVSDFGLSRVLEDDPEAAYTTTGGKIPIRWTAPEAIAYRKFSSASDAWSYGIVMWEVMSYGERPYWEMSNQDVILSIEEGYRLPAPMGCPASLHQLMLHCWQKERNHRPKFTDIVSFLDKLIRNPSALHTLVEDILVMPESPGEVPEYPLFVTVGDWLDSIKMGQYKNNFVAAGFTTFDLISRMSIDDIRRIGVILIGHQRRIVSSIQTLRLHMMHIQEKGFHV

Setting [1] is: read-out: Niraparib (MK-4827) / %Ctrl @ 10000nM.
The mark [2] stands for this setting: read-out: Talazoparib (BMN 673) / %Ctrl @ 10000nM.
The mark [3] stands for this setting: read-out: Rucaparib / %Ctrl @ 10000nM, binding competition, % of control.
The mark [4] stands for this setting: read-out: Olaparib / %Ctrl @ 10000nM.

FGFR3, sequence (P22607 whole entry): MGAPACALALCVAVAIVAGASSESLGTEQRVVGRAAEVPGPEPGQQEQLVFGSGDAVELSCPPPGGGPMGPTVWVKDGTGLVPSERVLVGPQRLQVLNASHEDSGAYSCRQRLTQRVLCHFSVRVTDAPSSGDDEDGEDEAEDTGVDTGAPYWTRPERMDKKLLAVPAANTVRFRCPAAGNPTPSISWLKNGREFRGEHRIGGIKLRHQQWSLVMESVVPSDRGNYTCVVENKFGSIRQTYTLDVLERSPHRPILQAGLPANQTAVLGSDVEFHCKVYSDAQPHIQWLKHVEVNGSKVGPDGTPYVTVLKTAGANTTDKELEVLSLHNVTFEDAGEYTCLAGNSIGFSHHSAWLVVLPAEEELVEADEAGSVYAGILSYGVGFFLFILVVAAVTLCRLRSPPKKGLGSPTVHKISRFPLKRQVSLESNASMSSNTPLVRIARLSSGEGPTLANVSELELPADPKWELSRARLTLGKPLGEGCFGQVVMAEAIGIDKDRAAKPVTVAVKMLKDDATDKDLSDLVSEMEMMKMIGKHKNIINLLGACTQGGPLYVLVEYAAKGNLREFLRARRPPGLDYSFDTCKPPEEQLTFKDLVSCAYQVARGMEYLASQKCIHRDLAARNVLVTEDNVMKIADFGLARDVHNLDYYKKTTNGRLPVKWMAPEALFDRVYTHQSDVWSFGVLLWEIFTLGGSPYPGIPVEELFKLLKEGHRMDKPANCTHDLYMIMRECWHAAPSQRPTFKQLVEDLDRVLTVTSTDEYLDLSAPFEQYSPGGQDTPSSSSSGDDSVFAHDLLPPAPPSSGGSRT
HCK, sequence (P08631 whole entry): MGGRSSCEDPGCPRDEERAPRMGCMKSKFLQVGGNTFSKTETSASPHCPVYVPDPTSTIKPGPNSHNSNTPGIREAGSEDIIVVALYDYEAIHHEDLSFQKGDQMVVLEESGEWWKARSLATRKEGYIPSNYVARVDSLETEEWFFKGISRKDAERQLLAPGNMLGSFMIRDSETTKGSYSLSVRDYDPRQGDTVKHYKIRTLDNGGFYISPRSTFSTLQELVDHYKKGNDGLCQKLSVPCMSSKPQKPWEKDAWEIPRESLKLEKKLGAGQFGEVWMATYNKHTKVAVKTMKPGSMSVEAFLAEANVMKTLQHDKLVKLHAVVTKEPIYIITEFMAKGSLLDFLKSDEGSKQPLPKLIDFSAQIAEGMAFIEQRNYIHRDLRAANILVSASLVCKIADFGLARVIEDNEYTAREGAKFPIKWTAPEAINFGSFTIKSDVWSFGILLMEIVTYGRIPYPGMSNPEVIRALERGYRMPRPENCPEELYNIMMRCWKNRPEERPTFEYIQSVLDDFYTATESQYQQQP
ROCK1, sequence (Q13464 whole entry): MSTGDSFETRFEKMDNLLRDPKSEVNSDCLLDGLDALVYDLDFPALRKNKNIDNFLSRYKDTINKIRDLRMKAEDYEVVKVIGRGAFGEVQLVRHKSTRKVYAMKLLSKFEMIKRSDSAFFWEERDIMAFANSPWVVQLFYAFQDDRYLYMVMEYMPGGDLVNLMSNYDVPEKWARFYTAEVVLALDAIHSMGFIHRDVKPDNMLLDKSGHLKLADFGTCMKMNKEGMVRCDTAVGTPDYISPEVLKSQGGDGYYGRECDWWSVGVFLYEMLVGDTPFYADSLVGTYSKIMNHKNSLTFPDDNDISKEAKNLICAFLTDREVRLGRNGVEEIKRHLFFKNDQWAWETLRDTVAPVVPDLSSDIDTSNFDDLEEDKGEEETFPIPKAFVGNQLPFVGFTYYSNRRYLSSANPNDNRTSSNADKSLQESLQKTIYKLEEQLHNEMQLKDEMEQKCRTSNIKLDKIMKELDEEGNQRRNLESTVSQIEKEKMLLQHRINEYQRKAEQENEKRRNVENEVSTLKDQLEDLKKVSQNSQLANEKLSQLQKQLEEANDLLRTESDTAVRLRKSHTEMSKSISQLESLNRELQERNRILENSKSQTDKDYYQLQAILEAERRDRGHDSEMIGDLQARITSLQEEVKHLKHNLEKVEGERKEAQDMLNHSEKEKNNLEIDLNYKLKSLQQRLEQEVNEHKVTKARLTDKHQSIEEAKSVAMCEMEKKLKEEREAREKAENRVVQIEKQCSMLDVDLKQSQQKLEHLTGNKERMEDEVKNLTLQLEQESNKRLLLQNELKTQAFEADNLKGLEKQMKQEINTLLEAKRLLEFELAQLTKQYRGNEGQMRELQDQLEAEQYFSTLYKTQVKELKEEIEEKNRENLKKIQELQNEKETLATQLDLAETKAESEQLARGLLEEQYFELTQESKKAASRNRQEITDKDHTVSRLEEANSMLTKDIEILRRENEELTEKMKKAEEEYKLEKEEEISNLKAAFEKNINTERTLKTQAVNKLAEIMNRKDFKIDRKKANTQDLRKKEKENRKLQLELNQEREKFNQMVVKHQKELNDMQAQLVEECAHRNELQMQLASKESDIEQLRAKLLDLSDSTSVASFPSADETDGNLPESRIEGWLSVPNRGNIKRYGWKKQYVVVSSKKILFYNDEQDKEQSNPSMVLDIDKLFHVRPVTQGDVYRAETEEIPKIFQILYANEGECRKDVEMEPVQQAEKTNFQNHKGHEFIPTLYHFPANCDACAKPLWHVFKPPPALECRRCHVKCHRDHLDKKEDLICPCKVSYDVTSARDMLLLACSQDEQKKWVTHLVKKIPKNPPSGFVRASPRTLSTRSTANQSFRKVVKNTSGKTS

Consider `NC(=O)c1cccc2cn(-c3ccc([C@@H]4CCCNC4)cc3)nc12` [Niraparib], for which the percent of control binding at 10 µM at NEK10 (setting [1]) was 68%; on YANK1 (setting [1]) it was 99%; on ROCK1 (setting [1]), 61%; at EPHA6 (setting [1]), 89%; on FGFR3 (setting [1]) it was 94%; on HCK (setting [1]), 70%.
On to `Cn1ncnc1[C@H]1c2n[nH]c(=O)c3cc(F)cc(c23)N[C@@H]1c1ccc(F)cc1` [Talazoparib], for which the percent of control binding at 10 µM amounted to 100% on NEK10 (setting [2]); 100% at YANK1 (setting [2]); 100% on ROCK1 (setting [2]); 100% at EPHA6 (setting [2]); 100% at FGFR3 (setting [2]); 86% at HCK (setting [2]).
`CNCc1ccc(-c2[nH]c3cc(F)cc4c3c2CCNC4=O)cc1` [Rucaparib]: the percent of control binding at 10 µM on NEK10 (setting [3]) is 14%; on YANK1 (setting [3]), 69%; on ROCK1 (setting [3]), 85%; at EPHA6 (setting [3]) it was 99%; at FGFR3 (setting [3]) it was 99%; at HCK (setting [3]) it was 74%.
For `O=C(c1cc(Cc2n[nH]c(=O)c3ccccc23)ccc1F)N1CCN(C(=O)C2CC2)CC1` [Olaparib], the percent of control binding at 10 µM on NEK10 (setting [4]) was found to be 78%; on YANK1 (setting [4]), 86%; on ROCK1 (setting [4]), 97%; at EPHA6 (setting [4]), 94%; on FGFR3 (setting [4]), 100%; at HCK (setting [4]), 96%.

Values taken from paper PMC7026418, “The kinase polypharmacology landscape of clinical PARP inhibitors” (Scientific Reports, 2020).
